From ChEMBL document CHEMBL1146797, “Design, synthesis, and biological evaluation of novel T-Type calcium channel antagonists” (Bioorg Med Chem Lett, 2004) come the findings set out here.

For experiment [1], the system named is Jurkat. The experiment is described as follows: Inhibition of cellular proliferation in jurkat (T cells). In kind it is functional, cell-based. The settings on record: Homo sapiens.
The subject of experiment [2] is MDA-MB-361. The experiment is described as follows: Inhibition of cellular proliferation in MDA-361 (breast) tumor cells. In kind it is functional, cell-based. The following applies: Homo sapiens.
Experiment [3] has as its system LNCaP. Put plainly: (§1) Inhibition of calcium influx in LNCaP (prostate). In kind it is functional, cell-based. The following applies: Homo sapiens, Prostate gland.
In experiment [4] the test system is MDA-MB-361. The experiment is described as follows: Inhibition of calcium influx in MDA-361 (breast) tumor cells. The class given is functional, cell-based. The settings on record: Homo sapiens.
The subject of experiment [5] is Jurkat. The experiment is described as follows: Inhibition of calcium influx in jurkat (T cells). The class given is functional, cell-based. The following applies: Homo sapiens.
The test system of experiment [6] is LNCaP. The experiment is described as follows: Inhibition of cellular proliferation in LNCaP (prostate). The following applies: Homo sapiens. The class given is functional, cell-based.
Experiment [7] concerns LNCaP. The description is as §1. The class given is functional, cell-based, Homo sapiens, Prostate gland.

`COc1ccc(CCN2CCC[C@H]2COCc2ccccc2)cc1`: the IC50 with Jurkat [1] stood at 108 µM; with MDA-MB-361 [2], 83 µM; with LNCaP [3], 100 µM; in the experiment with MDA-MB-361 [4], 20 µM; with Jurkat [5], 100 µM; with LNCaP [6], 33 µM.
For the molecule `CN1CCC[C@H]1COC(c1ccccc1)c1ccc(Cl)cc1` (some centres undefined), the 50% inhibitory concentration (IC50) with Jurkat [1] turned out to be 60 µM; in the experiment on MDA-MB-361 [2] it was 47 µM; with LNCaP [3], 50 µM; in the experiment with MDA-MB-361 [4] it was 100 µM; in the experiment with Jurkat [5] it was 30 µM; in the experiment with LNCaP [6], 17 µM.
In the case of `COc1ccc(CCN2CCC[C@H]2COC(c2ccccc2)c2ccc(F)cc2)cc1` (some centres undefined), the 50% inhibitory concentration (IC50) is 13 µM with Jurkat [1]; 14 µM in the experiment with MDA-MB-361 [2]; 10 µM in the experiment on LNCaP [3]; 20 µM with MDA-MB-361 [4]; 3 µM with Jurkat [5]; 2 µM with LNCaP [6].
As for `COc1ccc(CCN2CCC[C@H]2COC(c2ccccc2)c2ccccc2)cc1`, the IC50 is 12 µM in the experiment with Jurkat [1]; 29 µM with MDA-MB-361 [2]; 30 µM with LNCaP [3]; 30 µM in the experiment with MDA-MB-361 [4]; 10 µM in the experiment with Jurkat [5]; 10 µM in the experiment with LNCaP [6].
Take `COc1ccc(CCN2CCC[C@H]2COCc2ccc(Cl)cc2)cc1`: the IC50 in the experiment on Jurkat [1] came to 18 µM; in the experiment on MDA-MB-361 [2], 15 µM; in the experiment on LNCaP [3], 10 µM; with MDA-MB-361 [4], 100 µM; in the experiment on Jurkat [5], 25 µM; in the experiment with LNCaP [6] it was 14 µM.
As to `Oc1ccc(CCN2CCC[C@H]2COC(c2ccccc2)c2ccc(Cl)cc2)cc1` (some centres undefined), the concentration for half-maximal inhibition (IC50) was 6 µM with Jurkat [1]; 11 µM in the experiment with MDA-MB-361 [2]; 10 µM in the experiment on LNCaP [3]; 30 µM in the experiment on MDA-MB-361 [4]; 10 µM with Jurkat [5]; 3 µM in the experiment on LNCaP [6].
Consider `COc1ccc(CCN2CCC[C@H]2COC(c2ccc(C)cc2)c2ccc(C)cc2)cc1`, for which the IC50 amounted to 11 µM in the experiment with Jurkat [1]; 40 µM in the experiment on MDA-MB-361 [2]; 5 µM in the experiment on LNCaP [3]; 20 µM in the experiment on MDA-MB-361 [4]; 3 µM with Jurkat [5]; 6 µM with LNCaP [6].
In the case of `COc1ccc(CCN2CCCC(COC(c3ccccc3)c3ccc(Cl)cc3)C2)cc1` (centres undefined), the IC50 in the experiment on Jurkat [1] was 8.8 µM; in the experiment on MDA-MB-361 [2], 13 µM; in the experiment with LNCaP [3] it was 12 µM; in the experiment with MDA-MB-361 [4], 30 µM; in the experiment with Jurkat [5], 10 µM; with LNCaP [6] it was 6.8 µM.
With `COc1ccc(CCN2CCC(COC(c3ccccc3)c3ccccc3)CC2)cc1`, the half-maximal inhibitory concentration (IC50) in the experiment with Jurkat [1] was determined as 8.3 µM; in the experiment with MDA-MB-361 [2], 10 µM; with LNCaP [3] it was 15 µM; in the experiment on MDA-MB-361 [4], 30 µM; in the experiment on Jurkat [5], 20 µM; in the experiment on LNCaP [6] it was 5 µM.
Take `COc1ccc(CCN2CCC[C@H]2COC(c2ccc(Cl)cc2)c2ccc(Cl)cc2)cc1`: the IC50 in the experiment with Jurkat [1] amounted to 3.6 µM; with MDA-MB-361 [2] it was 11 µM; in the experiment with LNCaP [3] it was 4 µM; in the experiment on MDA-MB-361 [4], 25 µM; in the experiment with Jurkat [5], 5 µM; with LNCaP [6], 3 µM.
As for `COc1ccc(CCN2CCC[C@H]2COC(c2ccccc2)c2ccc(Cl)c(Cl)c2)cc1` (some centres undefined), the half-maximal inhibitory concentration (IC50) stood at 6 µM in the experiment with Jurkat [1]; 11 µM in the experiment on MDA-MB-361 [2]; 10 µM in the experiment with LNCaP [3]; 10 µM with MDA-MB-361 [4]; 3 µM in the experiment on Jurkat [5]; 4 µM with LNCaP [6].
Turning to `COc1ccc(CCCN2CCC[C@H]2COC(c2ccccc2)c2ccc(Cl)cc2)cc1` (some centres undefined), the IC50 with Jurkat [1] turned out to be 4 µM; with MDA-MB-361 [2], 11 µM; with LNCaP [3] it was 30 µM; in the experiment with MDA-MB-361 [4], 10 µM; with Jurkat [5], 1 µM; with LNCaP [6], 3.5 µM.
With `COc1ccc(CCN2CCC[C@H]2COC(c2ccc(OC)cc2)c2ccc(OC)cc2)cc1`, the IC50 in the experiment on Jurkat [1] was found to be 13 µM; in the experiment with MDA-MB-361 [2], 15 µM; with LNCaP [3], 10 µM; with MDA-MB-361 [4] it was 20 µM; in the experiment on Jurkat [5] it was 15 µM; in the experiment on LNCaP [6], 5.1 µM.
Take `COc1ccc(CCN2CCC[C@H]2COC(c2ccccc2)c2ccc(Br)cc2)cc1` (some centres undefined): the IC50 in the experiment on Jurkat [1] stood at 40 µM; with LNCaP [3], 15 µM; in the experiment on MDA-MB-361 [4] it was 100 µM; in the experiment on Jurkat [5] it was 30 µM; with LNCaP [6], 15 µM.
As to `COc1ccc(CN2CCC[C@H]2COC(c2ccccc2)c2ccc(Cl)cc2)cc1` (some centres undefined), the IC50 in the experiment with Jurkat [1] is 10 µM; in the experiment on MDA-MB-361 [2], 30 µM; with MDA-MB-361 [4] it was 30 µM; in the experiment on LNCaP [7] it was “No effect”; in the experiment with Jurkat [5], 2 µM; in the experiment with LNCaP [6], 7.7 µM.
With `COc1ccc(CCN2CCCCC2COC(c2ccccc2)c2ccc(Cl)cc2)cc1` (centres undefined), the IC50 in the experiment on Jurkat [1] came out at 11 µM; in the experiment with MDA-MB-361 [2], 25 µM; in the experiment with LNCaP [3], 10 µM; in the experiment on MDA-MB-361 [4], 30 µM; in the experiment with Jurkat [5] it was 3 µM; in the experiment on LNCaP [6], 5 µM.
On to `COc1ccc(CCN2CCC[C@H]2COC(c2ccc(F)cc2)c2ccc(F)cc2)cc1`, for which the IC50 in the experiment with Jurkat [1] came to 5 µM; in the experiment on MDA-MB-361 [2], 14 µM; with LNCaP [3] it was 10 µM; in the experiment on MDA-MB-361 [4], 30 µM; in the experiment on Jurkat [5], 3 µM; in the experiment on LNCaP [6], 4 µM.
Take `COc1ccc(CCN2CCCC(COC(c3ccc(Cl)cc3)c3ccc(Cl)cc3)C2)cc1` (centres undefined): the 50% inhibitory concentration (IC50) in the experiment with Jurkat [1] is 9.6 µM; with MDA-MB-361 [2] it was 13 µM; with LNCaP [3], 5 µM; in the experiment on MDA-MB-361 [4], 30 µM; with Jurkat [5], 10 µM; in the experiment on LNCaP [6], 5 µM.
Consider `COc1ccc(CCN2CCC[C@H]2COC(c2ccccc2)c2ccc(Cl)cc2)cc1` (some centres undefined), for which the IC50 came out at 6 µM with Jurkat [1]; 10 µM in the experiment with MDA-MB-361 [2]; 4 µM in the experiment on LNCaP [3]; 10 µM with MDA-MB-361 [4]; 4 µM in the experiment with LNCaP [6].
On to `COc1ccc(CCN2CCCCC2COC(c2ccc(Cl)cc2)c2ccc(Cl)cc2)cc1` (centres undefined), for which the half-inhibitory concentration (IC50) in the experiment on Jurkat [1] came to 9 µM; in the experiment on MDA-MB-361 [2], 22 µM; in the experiment with LNCaP [3] it was 7 µM; with MDA-MB-361 [4], 30 µM; in the experiment on Jurkat [5] it was 15 µM; in the experiment with LNCaP [6], 4 µM.
In the case of `Clc1ccc(C(OC[C@@H]2CCCN2CCc2ccccc2)c2ccccc2)cc1` (some centres undefined), the concentration for half-maximal inhibition (IC50) is 11 µM in the experiment with Jurkat [1]; 27 µM in the experiment with MDA-MB-361 [2]; 30 µM in the experiment on LNCaP [3]; 3 µM in the experiment with MDA-MB-361 [4]; less than 1 µM in the experiment on Jurkat [5]; 8 µM with LNCaP [6].
For `COc1ccc(CCN2CCCC(COC(c3ccccc3)c3ccccc3)C2)cc1` (centres undefined), the IC50 worked out at 13.8 µM with Jurkat [1]; 17.7 µM with MDA-MB-361 [2]; 15 µM with LNCaP [3]; 30 µM in the experiment with MDA-MB-361 [4]; 8 µM in the experiment on Jurkat [5]; 9.2 µM in the experiment on LNCaP [6].
On to `COc1ccc(CCN2CCC(COC(c3ccc(Cl)cc3)c3ccc(Cl)cc3)CC2)cc1`, for which the 50% inhibitory concentration (IC50) was 11.1 µM in the experiment on Jurkat [1]; 7.1 µM with MDA-MB-361 [2]; 10 µM in the experiment with LNCaP [3]; 20 µM in the experiment with MDA-MB-361 [4]; 10 µM with Jurkat [5]; 3.4 µM in the experiment with LNCaP [6].
As for `COc1ccc(CCN2CCC(COC(c3ccccc3)c3ccc(Cl)cc3)CC2)cc1` (centres undefined), the half-maximal inhibitory concentration (IC50) with Jurkat [1] was determined as 8.4 µM; with MDA-MB-361 [2], 10.4 µM; in the experiment with LNCaP [3], 5 µM; with MDA-MB-361 [4], 25 µM; with Jurkat [5], 7 µM; in the experiment with LNCaP [6], 3.3 µM.
For the molecule `COc1ccccc1CCN1CCC[C@H]1COC(c1ccccc1)c1ccc(Cl)cc1` (some centres undefined), the IC50 in the experiment on Jurkat [1] stood at 3.8 µM; in the experiment on MDA-MB-361 [2] it was 13 µM; in the experiment on LNCaP [3], 12 µM; in the experiment with MDA-MB-361 [4], 10 µM; with Jurkat [5], 1 µM; in the experiment with LNCaP [6], 2.4 µM.
For the molecule `COc1cccc(CCN2CCC[C@H]2COC(c2ccccc2)c2ccc(Cl)cc2)c1` (some centres undefined), the concentration for half-maximal inhibition (IC50) is 5 µM in the experiment with Jurkat [1]; 29 µM with MDA-MB-361 [2]; 10 µM in the experiment with LNCaP [3]; 30 µM in the experiment on MDA-MB-361 [4]; 3 µM in the experiment on Jurkat [5]; 3.2 µM in the experiment on LNCaP [6].
